# From PubChem BioAssay (NCI)
#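 A five-concentration, 48-hour dose response in 96-well plates underlies each endpoint, interpolated linearly between surrounding concentrations. TGI is the concentration that stops growth completely.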
# What was measured:
# Test in all cases: growth of human tumour cells (NCI), 48 h
# SK-OV-3 ovarian = test system: SK-OV-3 ovarian
# NCI-H226 lung = test system: NCI-H226 lung
# HS 578T breast = test system: HS 578T breast
# OVCAR-8 ovarian = test system: OVCAR-8 ovarian
# SNB-75 CNS = test system: SNB-75 CNS
# OVCAR-5 ovarian = test system: OVCAR-5 ovarian
# MCF7 breast = test system: MCF7 breast
# RPMI-8226 leukemia = test system: RPMI-8226 leukemia
# A498 renal = test system: A498 renal
# MOLT-4 leukemia = test system: MOLT-4 leukemia
# HT29 colon = test system: HT29 colon
# NCI-H460 lung = test system: NCI-H460 lung
# SW-620 colon = test system: SW-620 colon
# HOP-92 NSCLC = test system: HOP-92 NSCLC
# U251 CNS = test system: U251 CNS
# TK-10 renal = test system: TK-10 renal
# BT-549 breast = test system: BT-549 breast
# 786-0 renal = test system: 786-0 renal
# A549 NSCLC = test system: A549 NSCLC
# UACC-62 melanoma = test system: UACC-62 melanoma
# LOX IMVI melanoma = test system: LOX IMVI melanoma
# NCI-H23 lung = test system: NCI-H23 lung
# HL-60(TB) leukemia = test system: HL-60(TB) leukemia
# ACHN renal = test system: ACHN renal
# HCT-15 colon = test system: HCT-15 colon
# MDA-MB-435 = test system: MDA-MB-435
# OVCAR-3 ovarian = test system: OVCAR-3 ovarian
# SN12C renal = test system: SN12C renal
# DU-145 prostate = test system: DU-145 prostate
# KM12 colon = test system: KM12 colon
# SK-MEL-2 melanoma = test system: SK-MEL-2 melanoma
# SK-MEL-5 melanoma = test system: SK-MEL-5 melanoma
# UACC-257 melanoma = test system: UACC-257 melanoma
# CAKI-1 renal = test system: CAKI-1 renal
# SF-268 CNS = test system: SF-268 CNS
# CCRF-CEM leukemia = test system: CCRF-CEM leukemia
# NCI/ADR-RES ovarian = test system: NCI/ADR-RES ovarian
# HCT-116 colon = test system: HCT-116 colon
# HCC-2998 colon = test system: HCC-2998 colon
# MDA-MB-231 breast = test system: MDA-MB-231 breast
# EKVX NSCLC = test system: EKVX NSCLC
# OVCAR-4 ovarian = test system: OVCAR-4 ovarian
# SK-MEL-28 melanoma = test system: SK-MEL-28 melanoma
# MALME-3M melanoma = test system: MALME-3M melanoma
# COLO 205 colon = test system: COLO 205 colon
# SF-295 CNS = test system: SF-295 CNS
# PC-3 prostate = test system: PC-3 prostate
# K-562 leukemia = test system: K-562 leukemia
# T-47D breast = test system: T-47D breast
# UO-31 renal = test system: UO-31 renal
# M14 melanoma = test system: M14 melanoma
# SF-539 CNS = test system: SF-539 CNS
# NCI-H522 lung = test system: NCI-H522 lung
# SNB-19 CNS = test system: SNB-19 CNS
# IGROV1 ovarian = test system: IGROV1 ovarian
# RXF 393 renal = test system: RXF 393 renal
# HOP-62 NSCLC = test system: HOP-62 NSCLC
structure (smiles),measurement,setting,value
CC1(C)CC(=O)C(CC2C(=O)c3ccccc3C2=O)C(=O)C1C(=O)C(=O)Nc1cccc2ccc(O)cc12 (stereo unspecified),TGI,SK-OV-3 ovarian,> 100 µM
same,TGI,NCI-H226 lung,> 100 µM
same,TGI,HS 578T breast,> 100 µM
same,TGI,OVCAR-8 ovarian,> 100 µM
same,TGI,SNB-75 CNS,> 100 µM
same,TGI,OVCAR-5 ovarian,> 100 µM
same,TGI,MCF7 breast,> 100 µM
same,TGI,RPMI-8226 leukemia,> 100 µM
same,TGI,A498 renal,69.8 µM
same,TGI,MOLT-4 leukemia,> 100 µM
same,TGI,HT29 colon,> 100 µM
same,TGI,NCI-H460 lung,> 100 µM
same,TGI,SW-620 colon,> 100 µM
same,TGI,HOP-92 NSCLC,> 100 µM
same,TGI,U251 CNS,> 100 µM
same,TGI,TK-10 renal,> 100 µM
same,TGI,BT-549 breast,> 100 µM
same,TGI,786-0 renal,> 100 µM
same,TGI,A549 NSCLC,> 100 µM
same,TGI,UACC-62 melanoma,> 100 µM
same,TGI,LOX IMVI melanoma,> 100 µM
same,TGI,NCI-H23 lung,> 100 µM
same,TGI,HL-60(TB) leukemia,> 100 µM
same,TGI,ACHN renal,> 100 µM
same,TGI,HCT-15 colon,> 100 µM
same,TGI,MDA-MB-435,> 100 µM
same,TGI,OVCAR-3 ovarian,> 100 µM
same,TGI,SN12C renal,> 100 µM
same,TGI,DU-145 prostate,> 100 µM
same,TGI,KM12 colon,> 100 µM
same,TGI,SK-MEL-2 melanoma,> 100 µM
same,TGI,SK-MEL-5 melanoma,> 100 µM
same,TGI,UACC-257 melanoma,> 100 µM
same,TGI,CAKI-1 renal,> 100 µM
same,TGI,SF-268 CNS,> 100 µM
same,TGI,CCRF-CEM leukemia,> 100 µM
same,TGI,NCI/ADR-RES ovarian,> 100 µM
same,TGI,HCT-116 colon,> 100 µM
same,TGI,HCC-2998 colon,> 100 µM
same,TGI,MDA-MB-231 breast,> 100 µM
same,TGI,EKVX NSCLC,> 100 µM
same,TGI,OVCAR-4 ovarian,> 100 µM
same,TGI,SK-MEL-28 melanoma,> 100 µM
same,TGI,MALME-3M melanoma,> 100 µM
same,TGI,COLO 205 colon,> 100 µM
same,TGI,SF-295 CNS,> 100 µM
same,TGI,PC-3 prostate,> 100 µM
same,TGI,K-562 leukemia,> 100 µM
same,TGI,T-47D breast,> 100 µM
same,TGI,UO-31 renal,> 100 µM
same,TGI,M14 melanoma,> 100 µM
same,TGI,SF-539 CNS,> 100 µM
same,TGI,NCI-H522 lung,> 100 µM
same,TGI,SNB-19 CNS,> 100 µM
same,TGI,IGROV1 ovarian,> 100 µM
CCc1cccc(C(C)C)c1NC1=C([n+]2ccc(C)cc2)C(=O)c2ccccc2C1=O,TGI,SK-OV-3 ovarian,19.7 µM
same,TGI,NCI-H226 lung,8.76 µM
same,TGI,HS 578T breast,> 100 µM
same,TGI,OVCAR-8 ovarian,4.79 µM
same,TGI,SNB-75 CNS,7.32 µM
same,TGI,OVCAR-5 ovarian,23.2 µM
same,TGI,MCF7 breast,1.3 µM
same,TGI,RPMI-8226 leukemia,2.71 µM
same,TGI,A498 renal,8.79 µM
same,TGI,MOLT-4 leukemia,9.43 µM
same,TGI,HT29 colon,7.75 µM
same,TGI,NCI-H460 lung,4.09 µM
same,TGI,SW-620 colon,> 100 µM
same,TGI,HOP-92 NSCLC,7.06 µM
same,TGI,U251 CNS,12.1 µM
same,TGI,TK-10 renal,29.1 µM
same,TGI,786-0 renal,12.1 µM
same,TGI,A549 NSCLC,22.5 µM
same,TGI,UACC-62 melanoma,4.22 µM
same,TGI,LOX IMVI melanoma,3.39 µM
same,TGI,NCI-H23 lung,> 100 µM
same,TGI,HL-60(TB) leukemia,9.29 µM
same,TGI,ACHN renal,1.68 µM
same,TGI,HCT-15 colon,13.9 µM
same,TGI,MDA-MB-435,3.12 µM
same,TGI,OVCAR-3 ovarian,2.31 µM
same,TGI,SN12C renal,8.35 µM
same,TGI,DU-145 prostate,3.92 µM
same,TGI,KM12 colon,> 43.4 µM
same,TGI,SK-MEL-2 melanoma,28.9 µM
same,TGI,SK-MEL-5 melanoma,4.66 µM
same,TGI,UACC-257 melanoma,4.45 µM
same,TGI,CAKI-1 renal,5.41 µM
same,TGI,SF-268 CNS,5.8 µM
same,TGI,CCRF-CEM leukemia,4 µM
same,TGI,NCI/ADR-RES ovarian,37.8 µM
same,TGI,HCT-116 colon,> 100 µM
same,TGI,HCC-2998 colon,20.9 µM
same,TGI,MDA-MB-231 breast,> 34.7 µM
same,TGI,EKVX NSCLC,5.16 µM
same,TGI,OVCAR-4 ovarian,10.9 µM
same,TGI,RXF 393 renal,4.28 µM
same,TGI,SK-MEL-28 melanoma,20.8 µM
same,TGI,MALME-3M melanoma,6.91 µM
same,TGI,COLO 205 colon,2.57 µM
same,TGI,SF-295 CNS,18.1 µM
same,TGI,PC-3 prostate,8.91 µM
same,TGI,K-562 leukemia,20.3 µM
same,TGI,T-47D breast,2.24 µM
same,TGI,HOP-62 NSCLC,9.62 µM
same,TGI,UO-31 renal,10 µM
same,TGI,M14 melanoma,3.16 µM
same,TGI,SF-539 CNS,4.27 µM
same,TGI,NCI-H522 lung,15.8 µM
same,TGI,SNB-19 CNS,> 100 µM
same,TGI,IGROV1 ovarian,8.18 µM
